Results on five compounds are retold here after article PMC11943016, “TBG096 Ameliorates Memory Deficiency in AD Mouse Model via Promoting Neurogenesis and Regulation of Hsc70/HK2/PKM2/LAMP2A Signaling Pathway” (International Journal of Molecular Sciences, 2025).

One data set has as its system gut microbiota. Nature of the data set: Gut microbiota analysis in HFD-induced AD mice. Particulars: Met 140 mg/kg. The format is in vivo. An excerpt: (§1) In experiments with the HFD-induced AD mouse model, a total of 60 Institute of Cancer Research (ICR) male mice aged 4 weeks from Zhejiang Academy of Medical Sciences (Hangzhou, China) were used for animal experiments (permit number: ZJU20230121). The animals were provided free access to a chow diet and water. […] The HFD and normal diet were alternated every two days to maintain freshness. Weekly measurements were taken for water intake, food intake, and body weight. In the eighteenth week, the mice underwent Y-maze and NOR tests. The Morris water maze test was conducted during the nineteenth week. After confirming the successful establishment of the AD model characterized by cognitive impairment, oral administration of treatments commenced. […] Each group had 10 mice.

Data set [1] has as its system HFD-induced AD mice. Put plainly: Immunofluorescence staining of brain tissue of HFD-induced AD mice. The format is in vivo.
From the text: as §1
At the end of animal experiments, three mice in each group were taken for heart perfusion with cold PBS and 4% paraformaldehyde. After that, the brains of mice were fixed with 4% paraformaldehyde for 24 h and gradually dehydrated with 15% and 30% sucrose solutions for 48 h, respectively. The fixed and embedded brain sample was placed in a cryostat and cut into 20 µm thick slices with a cryostat (Thermo Fisher, Waltham, MA, USA), and brain slices in the hippocampus and cortex were collected. Finally, the brain slices were placed in antifreeze (glycerol/ethylene/PBS = 3:3:4) and kept in a refrigerator at −30 °C until immunostaining. The brain slices were fixed on a glass slide and hydrated with PBS for 5 min. Then, blocking buffer was added to the brain slices and incubated at room temperature for 1 h. Brain slices were washed twice with PBS and incubated with anti-NeuN, anti-BrdU, anti-Iba1, anti-GFAP, anti-INOS, anti-APP, or anti-p-Tau at 4 °C for 24 h, respectively. Subsequently, the brain slices were incubated with secondary antibody (goat anti-rabbit IgG H&L (Alexa Fluor® 488) or rabbit anti-mouse IgG (Cy3 conjugate)) at room temperature for 2 h after washing with PBS three times. Finally, a cover glass was used to lightly cover the slices stained with DAPI. […] Biomarker proteins in the cerebral cortex and hippocampus were digitized by Image J software (National Institutes of Health, Bethesda, MD, USA).

The subject of data set [2] is HFD-induced AD mice. Put plainly: Behavioral tests (Y-maze, NOR, MWM) in HFD-induced AD mice. The format is in vivo.
From the text: as §1
The Y-maze test is used to evaluate working memory, and the process was referenced in another report. In brief, the Y-maze consists of three black plastic arms (A, B, and C) with the same length (30 cm), width (10 cm), height (15 cm), and 120° relative to adjacent arms. Each mouse is placed facing the wall of arm A and allowed to explore the maze freely for 5 min. The behavior of mice is recorded with a video recorder, and the data are stored in ANY-MAZE software version 6.35 (Stoelting, Chicago, IL, USA). The total number of entries made by the mice into each arm—considered as either whole or half-body entries—is recorded. An alternation is defined as a mouse moving through all three arms without returning to the initial arm on the third visit. Alternation: number of alternations/(number of arm entries − 2) × 100%.
The NOR test is utilized to assess the working memory capabilities of mice. The NOR apparatus consists of an open, black plastic box, two identical objects, and one novel object. The activity of the mice within the open field is captured and recorded using a video recorder, with data subsequently stored in ANY-MAZE software. The test is conducted over a span of two days, incorporating habituation, training, and testing stages. During the habituation phase, the mice are placed in the box devoid of any objects, allowing them to explore freely for a duration of five min. Following a 24 h interval, the NOR test is administered, which consists of both the training and testing phases. In the training phase, each mouse is positioned in the central area of the box, where two identical objects are placed equidistant from the mouse. Each training session lasts for five minutes. After a one-hour break, one of the identical objects is replaced with a new, distinct object, and the exploration duration for each mouse is recorded. Exploration is defined by the time a mouse spends touching or sniffing an object. The exploration times during both the training and testing phases are documented via video recording, and the data are organized within ANY-MAZE software. The object recognition index was defined as follows: (time spent on the new object)/(time spent on the old object + time spent on the new object) × 100%. The data are calculated by ANY-MAZE software.
The MWM test is used to measure spatial memory and long-term memory. The whole MWM equipment includes a circular water tank (diameter 1.5 m, depth 50 cm) with warm water (22 ± 1 °C) 35 cm deep, a platform (diameter 14 cm, immersed 1 cm in water), a camera, and a computer for data analysis. The MWM test is conducted over five 5 days: 4 days for training and 1 day for testing. The pool is divided into four quadrants, and at least three quadrants are tested at a time. In the training stage, the mouse is placed on the wall of one of the four quadrants and allowed to swim and find the platform hidden underwater within 120 s. If the mouse cannot find the platform, the experimenter will guide it and let it stay on the platform for 10 s. The experiment lasts for 4 days. On the fifth day of the test phase, the platform is removed, and each mouse is placed in a similar starting position and allowed to move freely for 90 s. […]

Data set [3] concerns PC12 cells. Put plainly: EdU cell proliferation in PC12 cells (inhibitor experiment). Particulars: VER155008 3 µM, NH4Cl 250 µM. The format is cell-based. As for the experimental part: In the inhibitor experiment of EdU cell proliferation activity, PC12 cells were seeded into each well of a 24-well plate as above for 24 h. Then, the medium in each well was replaced with 500 μL of serum-free […] containing VER155008 (inhibitor of Hsc70, 3 µM), or NH4Cl (inhibitor of lysosome, 250 µM) for 30 min according to the literature, and 500 μL of serum-free DMEM containing different samples was added and cultured for 24 h, respectively. After that, PC12 cells were treated with EdU for 2 h according to the operation steps of the BeyoClick™ EdU-488 cell proliferation detection kit (#C0071S, Beyotime Biotechnology, Shanghai, China). After cell labeling, the supernatant was removed. Then, PC12 cells were fixed, washed, and blocked, and the click reaction solution was added at room temperature for 30 min. After that, DAPI staining was performed for 10 min. Finally, PC12 cells were detected by fluorescence microscope (Olympus IX53, Tokyo, Japan).

The subject of data set [4] is Hsc70, LAMP2A, APP, PKM2, and HK2 proteins. Put plainly: Western blot of CMA proteins in PC12 cells (inhibitor experiment). The format is cell-based. The conditions noted are these: TBG096 1 µM, VER155008 3 µM, 4 h, vs control. As for the experimental part: (§2) In the inhibitor experiment of NGF-mimic activity, approximately 5 × 10^4 PC12 cells were seeded into each well of a 24-well plate and incubated for 24 h. After that, the medium in each well was replaced with 500 μL of serum-free DMEM or the serum-free DMEM containing VER155008, the inhibitor of Hsc70 protein, incubated in a CO2 incubator for 30 min. Subsequently, 500 μL of serum-free DMEM containing different samples was added and cultured, respectively. The PC12 cells with neurite outgrowth were recorded after 48 h. For the Western blot analysis, the experiment included five groups, namely the control (C) group, the NGF (40 ng/mL) group, the TBG096 (1 µM) group, the VER155008 (3 µM) group, and the VER155008 (3 µM) + TBG096 (1 µM) group. Afterwards, approximately 2 × 10^6 cells per dish were seeded into ten 6 cm Petri dishes with 5 mL of DMEM medium and incubated for 24 h. After giving different treatments with samples, the cells continued to culture for 4 h. Protein extraction was conducted to prepare for the subsequent Western blot analysis.
Approximately 50 mg of cerebral cortex from brain tissues was homogenized in RIPA lysis buffer containing 1% protease inhibitor and 1% phosphatase inhibitor. Then, the sample was centrifuged at 12,000 rpm at 4 °C for 10 min, and the supernatant was transferred to a new tube. Protein concentrations were determined using the BCA kit, and 30 µg of protein from each sample was denatured by heating in water at 100 °C for 10 min. Subsequently, approximately 30 µg of protein from each sample was loaded into each well. After conducting gel electrophoresis at 80 V for 15 min and then at 120 V for 60 min, the proteins were transferred to the polyvinylidene fluoride (PVDF) membrane for 90 min. Then, the PVDF membrane was blocked with 5% skimmed milk at room temperature for 60 min. The membrane was incubated with a diluted primary antibody at 4 °C overnight. After washing the membrane three times with TBST buffer (1× TBS buffer containing 0.05% (v/v) tween 20), it was incubated with the secondary antibody for 1 h at room temperature. Finally, the strip was developed using chemiluminescence ECL reagent, and the blot density was quantified with ImageJ (National Institutes of Health, Bethesda, MD, USA).
In general terms: A western blot detects proteins with antibodies after separation by electrophoresis.

In data set [5] the test system is PC12 cells. Put plainly: NGF-mimic activity: neurite outgrowth in PC12 cells. The format is cell-based. Particulars: 0.3, 1, and 3 µM, 48 h. As for the experimental part: The neurogenic activity of samples was evaluated according to the methods described in our previous study. Briefly, approximately 5 × 10^4 cells were seeded in each well of a 24-well microplate and were cultured under a humidified atmosphere with 5% CO2 at 37 °C for 24 h. Then, the medium in each well was replaced with 1 mL of serum-free DMEM containing 40 ng/mL NGF as a positive control, 0.5% DMSO as a negative control, and the test sample after 24 h, respectively. About 100–200 cells of each well were counted from a randomly selected area and repeated thrice after 48 h. A cell-bearing neurite outgrowth longer than the diameter of the cell body was identified as a positive cell. The activity was presented as the percentage of positive cells in the selected area.
as §2

Data set [6] deals with PC12 cells. Put plainly: MTT assay, cytotoxicity in PC12 cells. The format is cell-based. The conditions noted are these: 10 µM. How it is done: PC12 cells were firstly inoculated into a 24-well plate and cultured for 24 h. Following this, samples at different doses were added and cultured for 24 h. Subsequently, the 0.5 mL serum-free medium containing MTT (0.2 mg/mL) of each well was used to replace the original medium and incubated for 2 h. After removing the solution, the purple crystal was dissolved in 200 μL of DMSO, and the absorbance was measured at 570 nm. The cell survival rate for each group was calculated based on the control group.

For data set [7] the following is noted: cited from earlier work.

As for `CN(C)C(=N)N=C(N)N` [Met, Metformin, reference compound], the “abundance of Firmicutes (decreased by HFD) and Bacteroidota (increased by HFD)” value with gut microbiota (TBG096 20 mg/kg) is “reversed”. For the same compound, the “abundance of Ligilactobacillus” value in the data set on gut microbiota (TBG096 5 and 20 mg/kg) is listed as “improved”. For the same compound, in the data set with HFD-induced AD mice [1] (immunofluorescence), the “APP and phosphorylation Tau protein in the hippocampus” value is “reduction”. Moreover, the “number of mature neurons (NeuN) in the cerebral cortex” value with HFD-induced AD mice [1] (vs HFD-only group) was “increased numbers of mature neurons”. In addition, the “number of arm entries, Y-maze test” value in the data set with HFD-induced AD mice [2] (TBG096 0.1, 5, 20 mg/kg, Met 140 mg/kg, 54 days) is “No significant differences”. Also, the “escape latency, MWM training phase” value with HFD-induced AD mice [2] (fourth day, Met 140 mg/kg and all doses of TBG096) is reported as “markedly reduced”. The “number of platform crossings, MWM test phase” value in the data set with HFD-induced AD mice [2] (vs HFD-only group) is on record as “increased significantly”.

Consider `Cl.N` [NH4Cl], for which, in the data set with PC12 cells [3], the “effect of inhibitor on the EdU cell proliferation activity of TBG096” value is “reverse the activity”.

Take `N#Cc1ccc(COC[C@H]2O[C@@H](n3c(NCc4ccc(Cl)c(Cl)c4)nc4c(N)ncnc43)[C@H](O)[C@@H]2O)cc1` [VER155008, reference compound]: in data set [4], the APP protein expression result was “significantly increased”, the Hsc70 protein level entry is listed as “significantly decreased”, the LAMP2A protein level result is listed as “significantly increased” and the PKM2 protein expression result was “significantly increased”. Besides, the “effect of inhibitor on the EdU cell proliferation activity of TBG096” value with PC12 cells [3] is reported as “reverse the activity”.

With `O=C(SCCCCCCCCSCCCC(F)(F)F)c1cccc(O)c1O` [compound 4], the “percentage of PC12 cells exhibiting neurite growth” value with PC12 cells [5] is recorded as “superior activity”. In addition, the “toxicity in PC12 cells (MTT)” value in the data set on PC12 cells [6] was “some level of toxicity”.

For the compound “NGF: Nerve growth factor, the first recognized neurotrophic factor; positive control in PC12 assay”, in data set [7], the BBB penetration entry is “cannot penetrate the BBB”.
